Data taken from the supplement of paper PMC10307832.

Columns and labels:
Assay in all cases: relative viability (nuclei count vs DMSO), 5 days (fraction); higher = more cells survive
[1] = compound: CC1(C)CCC(CN2CCN(c3ccc(C(=O)NS(=O)(=O)c4ccc(NCC5CCOCC5)c([N+](=O)[O-])c4)c(Oc4cnc5[nH]ccc5c4)c3)CC2)=C(c2ccc(Cl)cc2)C1 [Venetoclax] + CC(=O)Nc1cccc(-n2c(=O)n(C3CC3)c(=O)c3c(Nc4ccc(I)cc4F)n(C)c(=O)c(C)c32)c1 [Trametinib] (partner 0.02 µM)
Outline: (§1)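 Medians of duplicate plates are given as relative viability. That measure is the nuclei count in treated wells divided by the count in vehicle wells. Counts were taken on 4× images of lung cancer cell lines in 1536-well plates, 5 days after pin-tool dosing the day after seeding with one drug alone or a fixed anchor-drug dose plus five library-drug doses (not always all listed) in √10 steps.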

[2] = compound: CC1(C)CCC(CN2CCN(c3ccc(C(=O)NS(=O)(=O)c4ccc(NCC5CCOCC5)c([N+](=O)[O-])c4)c(Oc4cnc5[nH]ccc5c4)c3)CC2)=C(c2ccc(Cl)cc2)C1 [Venetoclax] + Cc1nc(NC(=O)N2CCC[C@H]2C(N)=O)sc1-c1ccnc(C(C)(C)C(F)(F)F)c1 [Alpelisib] (partner 2 µM)
Outline: as §1

[3] = compound: CC1(C)CCC(CN2CCN(c3ccc(C(=O)NS(=O)(=O)c4ccc(NCC5CCOCC5)c([N+](=O)[O-])c4)c(Oc4cnc5[nH]ccc5c4)c3)CC2)=C(c2ccc(Cl)cc2)C1 [Venetoclax] + N=C(N)NC(=N)NCCc1ccccc1 [Phenformin] (partner 250 µM)
Outline: as §1

[4] = compound: Cn1cnc2c(F)c(Nc3ccc(Br)cc3Cl)c(C(=O)NOCCO)cc21 [Selumetinib] + O=C(CCCCCCC(=O)Nc1ccccc1)NO [Vorinostat] (partner 1 µM)
Outline: as §1

| Cell Line | relative viability ([1]; first compound 0.01 µM) | relative viability ([1]; first compound 0.03162 µM) | relative viability ([1]; first compound 0.1 µM) | relative viability ([1]; first compound 0.3162 µM) | relative viability ([1]; first compound 1 µM) | relative viability ([2]; first compound 0.01 µM) | relative viability ([2]; first compound 0.03162 µM) | relative viability ([2]; first compound 0.1 µM) | relative viability ([2]; first compound 0.3162 µM) | relative viability ([2]; first compound 1 µM) | relative viability ([3]; first compound 0.01 µM) | relative viability ([3]; first compound 0.03162 µM) | relative viability ([3]; first compound 0.1 µM) | relative viability ([3]; first compound 0.3162 µM) | relative viability ([3]; first compound 1 µM) | relative viability ([4]; first compound 0.02 µM) | relative viability ([4]; first compound 0.06325 µM) | relative viability ([4]; first compound 0.2 µM) | relative viability ([4]; first compound 0.6325 µM) |
| --- | --- | --- | --- | --- | --- | --- | --- | --- | --- | --- | --- | --- | --- | --- | --- | --- | --- | --- | --- |
| NCI-H1993 | 0.509 | 0.518 | 0.506 | 0.591 | 0.535 | 0.676 | 0.696 | 0.665 | 0.617 | 0.68 | 0.603 | 0.494 | 0.473 | 0.48 | 0.528 | 0.85 | 0.6 | 0.597 | 0.612 |
| NCI-H2009 | 0.346 | 0.351 | 0.292 | 0.266 | 0.264 | 1.1 | 1.15 | 1.16 | 1.11 | 1.07 | 0.48 | 0.459 | 0.439 | 0.446 | 0.337 | 0.675 | 0.717 | 0.65 | 0.377 |
| NCI-H2023 | 0.526 | 0.552 | 0.558 | 0.485 | 0.477 | 0.574 | 0.573 | 0.544 | 0.553 | 0.551 | 0.434 | 0.393 | 0.435 | 0.434 | 0.378 | 0.617 | 0.554 | 0.524 | 0.559 |
| NCI-H2085 | 0.45 | 0.56 | 0.416 | 0.547 | 0.511 | 0.911 | 0.925 | 0.884 | 0.928 | 0.911 | 0.635 | 0.762 | 0.688 | 0.766 | 0.655 | 0.76 | 0.757 | 0.739 | 0.718 |
| NCI-H2087 | 0.197 | 0.181 | 0.178 | 0.199 | 0.257 | 1.16 | 1.11 | 0.808 | 1.22 | 0.664 | 0.461 | 0.471 | 0.387 | 0.407 | 0.461 | 0.582 | 0.258 | 0.514 | 0.445 |
| NCI-H2126 | 0.544 | 0.618 | 0.538 | 0.566 | 0.521 | 0.807 | 0.728 | 0.759 | 0.819 | 0.796 | 0.528 | 0.56 | 0.513 | 0.582 | 0.51 | 0.727 | 0.664 | 0.595 | 0.583 |
| NCI-H2170 | 0.859 | 0.97 | 0.841 | 0.812 | 0.87 | 0.769 | 0.739 | 0.75 | 0.825 | 0.788 | 0.319 | 0.415 | 0.399 | 0.368 | 0.34 | 0.905 | 0.74 | 0.705 | 0.786 |
| NCI-H2228 | 0.715 | 0.608 | 0.567 | 0.453 | 0.464 | 0.696 | 0.842 | 0.698 | 0.628 | 0.757 | 0.366 | 0.322 | 0.234 | 0.422 | 0.408 | 0.744 | 0.627 | 0.63 | 0.619 |
